Data: US20250387424A1, “PHARMACEUTICAL COMPOSITION COMPRISING A3 ADENOSINE RECEPTOR AGONIST FOR TREATMENT OF PSORIASIS” (CAN-FITE BIOPHARMA LTD., priority 2022, published 2025)

Tests used:
[1] = tested on: patients with moderate to severe plaque psoriasis; test: COMFORT-1 phase 3 trial, efficacy (PASI, PGA2, PDI); assay type: in vivo, human
[2] = tested on: patients with moderate to severe plaque psoriasis; test: COMFORT-1 phase 3 trial, safety (TEAEs, ECG); settings: for serious TEAE (number): not considered drug related; for tolerability: 32-week study period
Description: The COMFORT-1 study was a phase 3 multicenter (with sites in Bosnia, Bulgaria, Canada, Israel, Moldova, Poland, Romania, and Serbia) randomized, double-blind, controlled clinical trial in moderate-to-severe plaque psoriasis (ClinicalTrials.gov identifier: NCT03168256). […] Eligible patients were randomly assigned to these arms in a 3:3:3:2 ratio. Blinding was maintained using a double-dummy technique. The second segment (Weeks 16-32) included 3 treatment arms, as at Week 16, the patients in the placebo arm were re-randomized to piclidenoson 2 mg BID, piclidenoson 3 mg BID, or apremilast (dose-titrated over 6 days to 30 mg BID) in a 1:1:1 ratio and treated through Week 32. Those originally assigned to piclidenoson or apremilast remained on their initially assigned treatment through Week 32. Blinding was maintained through Week 32. Patients were evaluated every 2 weeks for efficacy and safety.
Safety assessments included treatment emergent adverse events (TEAEs) and changes in vital signs, physical examination, clinical laboratory tests (liver, kidney, hematology, chemistry, and urinalysis), and electrocardiogramdings.
Overall, 4 analysis populations were defined: The safety population included all patients who received ≥1 dose of piclidenoson; the intent-to-treat (ITT) population included all those in the safety population with at least one PASI score recorded post-BL and excluded patients who withdrew prior to Week 16 due to COVID-19-related study suspension; the modified ITT (mITT) population, which was used for the Week 16 efficacy analyses, included all ITT patients except one patient in the placebo arm who was excluded due to major protocol violations that were not captured in the original data; and lastly, the per protocol (PP) population, which was used for the Week 32 analyses, and included all ITT patients who had no major protocol violations on or before Week 16 and who completed Week 16 of the study. Exclusion from the PP population was finalized prior to any unblinded analyses. The analyses conducted for Week 32 were performed separately for patients who were initially randomized to piclidenoson or apremilast and for those who were initially randomized to the placebo group.
Descriptive statistics were used to summarize patient characteristics and safety. […] If a patient had more than one TEAE with the same PT, the patient was counted once.

[3] = COMFORT-1 phase 3 trial, pharmacokinetics (Cmax, AUC); assay type: in vivo, human; settings: 2 mg BID arm compared with 3 mg BID arm; Weeks 0, 8, 16
Protocol: The trial had 2 segments (FIG. 1). […] Blinding was maintained through Week 32.
The primary endpoints included the proportion of patients achieving PASI 75 in the piclidenoson 2 mg and 3 mg BID arms vs. placebo at Week 16 (superiority) and safety. Secondary endpoints at Week 16 compared the piclidenoson arms to placebo and included the proportion of patients achieving PASI 50, the proportion of patients achieving a score of 0 or 1 in PGA2 (a PASI-based measure calculated using the intensity grading of components of the PASI score; specifically, it is the average of the PASI erythema, infiltration, and desquamation scores) [Gordon, K. B. et al. N Engl J Med 373, 136-144 (2015)], and the proportion of patients experiencing an improvement from BL in Psoriasis Disability Index (PDI). Additional secondary endpoints were evaluated at Week 32 and compared the piclidenoson arms to apremilast. These included the proportion of patients achieving PASI 75, PASI 50, PGA2 of 0 or 1, and the proportion of patients experiencing an improvement from BL in PDI. PK analysis, including calculating the peak concentration of the drug in the bloodstream after administration (Cmax), was conducted for Weeks 0, 8, and 16.

[4] = apremilast 30 mg BID, Week 32, PP population
[5] = apremilast 30 mg BID, Weeks 0-32, safety population N = 177
[6] = piclidenoson 2 mg BID, Weeks 0-32, safety population N = 179
[7] = piclidenoson 3 mg BID, Weeks 0-32, safety population N = 173

Which “patients achieving improvement from baseline in PDI (number/arm total)” value [1, 4] does the source give for `CCOc1cc([C@@H](CS(C)(=O)=O)N2C(=O)c3cccc(NC(C)=O)c3C2=O)ccc1OC` [Apremilast, apremilast, reference compound] here?
The value was 59/108.

What about the “proportion of patients achieving PASI 50” value [1, 4] of the same compound?
Its value is 25.2%.

And the “proportion of patients achieving improvement from BL in PDI” value (“proportion … in PDI” for short) [1, 4]?
The value was 55.1%.

And the “proportion of patients with PGA2 of 0 or 1” value (“proportion … of 0 or 1” below) [1, 4]?
The value was 24.3%.

What about the “proportion of patients achieving PASI 75” value ([1]; apremilast 30 mg BID, Week 32, PP population, initially randomized to active treatment) of the same compound?
Its value is 26.2%.

And the “Incidence of TEAE: GI disorders: Any” value [2, 5]?
The value was 7.3%.

What about the “Incidence of TEAE: Nervous system: Any” value [2, 5] of the same compound?
Its value is 9.6%.

What about the “serious TEAE (number)” value ([2]; apremilast 30 mg BID, pneumonia) of the same compound?
The value was 1.

And the “patients who withdrew from the study due to TEAEs” value (from here on “patients who withdrew”) ([2]; apremilast arm, Weeks 0-32)?
The value was 1.

For `CNC(=O)[C@H]1O[C@@H](n2cnc3c(NCc4cccc(I)c4)ncnc32)[C@H](O)[C@@H]1O` [Piclidenoson, methyl 1-[N^6-(3-iodobenzyl)-adenin-9-yl]-β-D-ribofuronamide], which “proportion of patients achieving PGA2 (0 or 1)” value ([1]; piclidenoson 2 mg BID, Week 16, mITT population, p=0.027 vs placebo) is on record?
The value was 11.8%±2.8%.

And the “proportion of patients achieving PASI 50” value ([1]; piclidenoson 2 mg BID, Week 16, mITT population, p=0.060 vs placebo)?
The value was 26.0%.

What about the “proportion of patients achieving PASI 75” value ([1]; piclidenoson 2 mg BID, Week 16, mITT population, p=0.075 vs placebo) of the same compound?
Its value is 7.9%±2.4%.

And the “proportion of patients achieving PDI improvement from BL” value ([1]; piclidenoson 2 mg BID, Week 16, mITT population, p=0.70 vs placebo)?
The value was 63.3%.

And the “proportion of patients achieving PASI 75” value ([1]; piclidenoson 2 mg BID, Week 32, PP population, initially randomized to active treatment, noninferiority vs apremilast p=0.429)?
Its value is 20.8%.

What about the “proportion … of 0 or 1” value ([1]; piclidenoson 2 mg BID, Week 32, PP population, noninferiority vs apremilast p=0.417) of the same compound?
The value was 18.9%.

What about the “proportion … in PDI” value ([1]; piclidenoson 2 mg BID, Week 32, PP population, noninferiority vs apremilast p=0.66) of the same compound?
The value was 48.1%.

What about the “proportion of patients achieving PASI 50” value ([1]; piclidenoson 2 mg BID, Week 32, PP population, noninferiority vs apremilast p=0.75) of the same compound?
The value was 17.0%.

And the “proportion of patients achieving PASI 75” value ([1]; piclidenoson 3 mg BID, Week 16, mITT population, p=0.037 vs placebo)?
The value was 9.7%±1.8%.

What about the “proportion of patients achieving PASI 75” value ([1]; piclidenoson 3 mg BID, Week 16, mITT population, p=0.037 vs placebo, listed as piclidenoson) of the same compound?
The value was 9.7%.

What about the “proportion of patients achieving PGA2 (0 or 1)” value ([1]; piclidenoson 3 mg BID, Week 16, mITT population, p=0.068 vs placebo) of the same compound?
Its value is 10.7%±3.0%.

What about the “proportion of patients achieving PASI 50” value ([1]; piclidenoson 3 mg BID, Week 16, mITT population, p=0.475 vs placebo) of the same compound?
The value was 19.4%.

What about the “proportion of patients achieving PDI improvement from BL” value ([1]; piclidenoson 3 mg BID, Week 16, mITT population, p=1.00 vs placebo) of the same compound?
The value was 58.3%.

And the “patients achieving improvement from baseline in PDI (number/arm total)” value ([1]; piclidenoson 3 mg BID, Week 32, PP population)?
The value was 51/88.

And the “proportion of patients achieving PASI 75” value ([1]; piclidenoson 3 mg BID, Week 32, PP population, initially randomized to active treatment, noninferiority vs apremilast p=0.881)?
Its value is 17.0%.

And the “proportion … in PDI” value ([1]; piclidenoson 3 mg BID, Week 32, PP population, noninferiority vs apremilast p=0.072)?
The value was 58.0%.

What about the “proportion of patients achieving PASI 50” value ([1]; piclidenoson 3 mg BID, Week 32, PP population, noninferiority vs apremilast p=0.49) of the same compound?
Its value is 19.3%.

What about the “proportion … of 0 or 1” value ([1]; piclidenoson 3 mg BID, Week 32, PP population, noninferiority vs apremilast p=0.777) of the same compound?
Its value is 15.9%.

What about the safety profile ([2]; 3 mg dose of piclidenoson) of the same compound?
Its safety profile is “excellent and better than apremilast”.

What about the “safety profile compared with placebo” value ([2]; both piclidenoson dosages, placebo used only Week 0 through Week 16) of the same compound?
The value was “generally comparable to that of placebo”.

What about the “safety profile compared with apremilast” value ([2]; piclidenoson 2 mg BID and 3 mg BID) of the same compound?
The value was “more favorable than that of apremilast”.

And the “patients who withdrew” value ([2]; piclidenoson 2 mg BID arm, Weeks 0-32)?
Its value is 2.

What about the tolerability ([2]; piclidenoson 2 mg BID) of the same compound?
Its tolerability is “well-tolerated”.

What about the “Incidence of TEAE: GI disorders: Any” value [2, 6] of the same compound?
Its value is 2.8%.

What about the “Incidence of TEAE: Infections/infestations: Nasopharyngitis” value [2, 6] of the same compound?
The value was 2.2%.

What about the “Incidence of TEAE: Infections/infestations: Urinary tract infection” value [2, 6] of the same compound?
Its value is 3.4%.

What about the “Incidence of TEAE: Nervous system: Any” value [2, 6] of the same compound?
The value was 1.7%.

And the “serious TEAE (number)” value ([2]; piclidenoson 2 mg BID, arterial embolism)?
The value was 1.

And the “patients who withdrew” value ([2]; piclidenoson 3 mg BID arm, Weeks 0-32)?
Its value is 5.

And the tolerability ([2]; piclidenoson 3 mg BID)?
Its tolerability is “well-tolerated”.

What about the “Incidence of TEAE: GI disorders: Any” value [2, 7] of the same compound?
Its value is 1.2%.

What about the “Incidence of TEAE: Infections/infestations: Nasopharyngitis” value [2, 7] of the same compound?
Its value is 2.9%.

And the “Incidence of TEAE: Nervous system: Any” value [2, 7]?
The value was 1.7%.

And the “serious TEAE (number)” value ([2]; piclidenoson 3 mg BID, osteomyelitis)?
Its value is 1.

And the “exposure as measured by both Cmax and AUC” value [3]?
Its value is “similar”.
